Laboratory results reported in patent US20230118114A1, “BIOERODIBLE LIFE SUPPORT HYDROGELS FOR THE DELIVERY OF VIABLE MITOCHONDRIA” (University of Kentucky Research Foundation, priority 2021, published 2023).
Entries after “also recorded” stand apart in the source; their conditions may differ.

Assays:
[1] = tested on: spinal cord injury (SCI); settings: cited from earlier work
[2] = tested on: mitochondria isolated from spinal cord injury site; assay: Mitochondrial respiration (OCR) of spinal cord mitochondria after contusion SCI; assay type: in vivo, rats; settings: 24 hours after SCI; MitoTxp 100 µg intraspinal within 3 hr; ALC 300 mg/kg i.p. at 3 hours plus booster 6 hours later
Protocol: Bars are Mean ± SD, n=5-6/group. *p<0.05 compared with sham; # p<0.05 versus vehicle.
Briefly, rats were contused at L1/L2 spinal level with 250 kDyn force using Infinite Horizon Impactor; Sham group received only T12 laminectomy. Designated injured rats were injected either intraspinally with healthy mitochondria (100 µg, MitoTxp) isolated from syngeneic rat soleus muscle within 3 hr and/or injected with ALC (300 mg/kg, i.p.) at 3 hours followed by a booster 6 hours later. Then, after 24 hours, mitochondria were isolated from spinal cord injury site and assessed for respiration (OCR).

[3] = tested on: mitochondria isolated from spinal cord injury site; settings: once daily ALC administered acutely after contusion SCI; cited from earlier work

Compound	long-term functional recovery and tissue sparing ([1]; continuous NACA 150 and 300 mg/kg/day up to 7 days post-injury)	States III & V.1 OCR [2]	mitochondrial respiration [3]	long term hind limb locomotor function and tissue sparing ([1]; continued daily ALC for three weeks after contusion SCI)	hind limb function ([1]; injured rats, 3 weeks of daily ALC treatment, vs vehicle)	tissue sparing ([1]; injured rats, 3 weeks of daily ALC treatment)
N-acetylcysteine amide [NACA]	significant tissue sparing and improved recovery of hindlimb function; also recorded: significantly increased long-term functional recovery and tissue sparing	–	–	–	–	–
CC(=O)O[C@H](CC(=O)[O-])C[N+](C)(C)C [ALC, acetyl-L-carnitine]	–	insignificant trends	maintains mitochondrial respiration	significantly improves long term hind limb locomotor function and tissue sparing	able to step consistently with weight support on their hind limbs	increased gray and white matter tissue sparing
